Assay results taken from publication PMC7174318, “The novel E. coli cell division protein, YtfB, plays a role in eukaryotic cell adhesion” (Scientific Reports, 2020).
Read-outs that look alike come from different tables or passages of the source.

Biological target: T1, YtfB (his6-YtfB, C-terminal domain) (Escherichia coli, UniProt P39310)
T1 construct: extracellular C-terminal region, residues 52-212 incl; LysM-like (OapA) domain; His6 tag kept; pETMCSIII-ytfB, expressed in E. coli BL21 AI
Experiment: surface plasmon resonance, steady state affinity, YtfB immobilised by amine coupling on CM5
Type: binding
Conditions: PBS running buffer

T1 sequence (P39310 52-212): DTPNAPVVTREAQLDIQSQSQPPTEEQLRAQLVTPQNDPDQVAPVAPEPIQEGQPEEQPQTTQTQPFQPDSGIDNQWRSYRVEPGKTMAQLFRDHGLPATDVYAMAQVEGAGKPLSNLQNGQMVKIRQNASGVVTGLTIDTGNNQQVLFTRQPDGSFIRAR

SMILES | Kd | Kd (read-out: KD)
CC(=O)N[C@H]1[C@H](O[C@H]2[C@H](O)[C@@H](NC(C)=O)C(O)O[C@@H]2CO)O[C@H](CO)[C@@H](O[C@@H]2O[C@H](CO)[C@@H](O)[C@H](O)[C@H]2NC(C)=O)[C@@H]1O (stereo partly shown) [4B, GlcNAcβ1-4GlcNAcβ1-4GlcNAc] | 3300 ± 2130 nM | –
CC(=O)N[C@H]1[C@H](O[C@H]2[C@H](O)[C@@H](NC(C)=O)[C@H](O[C@H]3[C@H](O)[C@@H](NC(C)=O)C(O)O[C@@H]3CO)O[C@@H]2CO)O[C@H](CO)[C@@H](O[C@@H]2O[C@H](CO)[C@@H](O[C@@H]3O[C@H](CO)[C@@H](O[C@@H]4O[C@H](CO)[C@@H](O)[C@H](O)[C@H]4NC(C)=O)[C@H](O)[C@H]3NC(C)=O)[C@H](O)[C@H]2NC(C)=O)[C@@H]1O (stereo partly shown) [4D, hexaacetylchitohexaose] | 24.8 ± 5.3 nM | –
OC[C@H]1O[C@H](O[C@@H]2C(O)O[C@H](CO)[C@@H](O)[C@@H]2O)[C@@H](O)[C@@H](O)[C@@H]1O (stereo partly drawn) [5C, α1–2mannobiose] | 43.3 nM | –
OC[C@H]1O[C@H](O[C@H]2[C@H](O)[C@@H](CO)OC(O)[C@H]2O)[C@@H](O)[C@@H](O)[C@@H]1O (stereo partly drawn) [5D, α1–3mannobiose] | 345 nM | –
OC[C@H]1O[C@H](O[C@H]2[C@H](O)[C@H](O)C(O)O[C@@H]2CO)[C@@H](O)[C@@H](O)[C@@H]1O (stereo partly drawn) [5E, α1–4mannobiose] | 31.2 nM | –
OC[C@H]1O[C@H](OC[C@H]2OC(O)[C@@H](O)[C@@H](O)[C@@H]2O)[C@@H](O)[C@@H](O)[C@@H]1O (stereo partly drawn) [5F, α1–6 mannobiose] | – | 112 nM
CC(=O)N[C@H]1[C@H](O[C@H]2[C@H](O)[C@@H](NC(C)=O)C(O)O[C@@H]2CO)O[C@H](CO)[C@@H](O[C@@H]2O[C@H](CO)[C@@H](O[C@@H]3O[C@H](CO)[C@@H](O)[C@H](O)[C@H]3NC(C)=O)[C@H](O)[C@H]2NC(C)=O)[C@@H]1O (stereo partly shown) [tetraose (N’acetylglucosamine)] | 463 ± 71 nM | –
